Source: publication PMC7932521, “2-aminobenzimidazoles for leishmaniasis: From initial hit discovery to in vivo profiling” (PLoS Neglected Tropical Diseases, 2021)

Tested on: Leishmania infantum MHOM/MA(BE)/67/ITMAP263 amastigotes
Assay: L. infantum intracellular amastigote assay in PMM
Format: cell-based
Conditions: CC50 / L. infantum IC50
Method: (§1) Leishmania infantum MHOM/MA(BE)/67/ITMAP263 amastigotes were collected from the spleen of infected donor Golden hamsters. Primary peritoneal mouse macrophages (PMM) were used as host cells for in vitro assays. PMM were collected from Swiss mice after 2 days of peritoneal stimulation with a 2% suspension of potato starch and maintained in RPMI-1640 medium supplemented with 200 mM L-glutamine, antibiotics and 5% FCS at 37°C and 5% CO2. Promastigotes of L. infantum chagasi (luciferase) (MHOM/BR/2005/NLC) obtained as described in Reimão et al.,[27] were grown in M199 medium supplemented with 10% FCS, 0.25% hemin, 32 μg/ml hygromycin and 2% sterile human urine at 25°C and 5% CO2.
(§2) Stock solutions of the compounds at 20 mM were prepared in 100% DMSO. Next, the compounds were serially pre-diluted in DMSO followed by a further dilution in demineralized water to assure a final in-test DMSO concentration below 1%. The compounds were tested at 4-fold dilutions starting at 64 μM.
For the antileishmania in vitro assays, 3×10^4 PMM/well were seeded in 96-well plates. After 24h, 5×10^5 amastigotes/well were added and incubated for 2h at 37°C. Next, the compounds in 4-fold serial dilutions were added and the plates were further incubated for 5 days (37°C, 5% CO2). Parasite burdens were assessed using an inverted microscope after Giemsa staining. The results were expressed as percent reduction in parasite burdens compared to negative control wells (100% growth) and IC50 values were determined. Values represent the geometric mean of at least two independent experiments. Miltefosine was used as the positive control in all plates.

| SMILES | SI: selectivity index (CC50 / IC50) |
| --- | --- |
| CCCn1c(NC(=O)Cc2ccc(F)cc2)nc2c(F)cccc21 [Compound 5, Fc1cccc2c1nc(NC(=O)Cc3ccc(F)cc3)n2CCC] | 1 |
| CCCn1c(NC(=O)Cc2ccc(F)cc2)nc2cc(F)c(F)cc21 [Compound 6, Fc1cc(n(CCC)c(NC(=O)Cc2ccc(F)cc2)n3)c3cc1F] | 29 |
| Cn1nccc1C(=O)Nc1nc2ccc(C#N)cc2n1CC(C)(C)O [Compound 49, O=C(c1ccnn1C)Nc2nc(ccc(C#N)c3)c3n2CC(O)(C)C] | 2 |
| CC(C)(C)Cn1c(NC(=O)c2ccn(CCO)n2)nc2ccc(C#N)cc21 [Compound 38, O=C(c1nn(CCO)cc1)Nc2nc(ccc(C#N)c3)c3n2CC(C)(C)C] | 1 |

Same assay, conditions: Leishmania infantum, 120 h, intracellular amastigotes in PMM, 5 days; read-out: L. infantum IC50

| SMILES | IC50 [µM] |
| --- | --- |
| CCCn1c(NC(=O)Cc2ccc(F)cc2)nc2cc(F)c(F)cc21 [Compound 6, Fc1cc(n(CCC)c(NC(=O)Cc2ccc(F)cc2)n3)c3cc1F] | 2.2 |
| Cn1nccc1C(=O)Nc1nc2ccc(C#N)cc2n1CC(C)(C)O [Compound 49, O=C(c1ccnn1C)Nc2nc(ccc(C#N)c3)c3n2CC(O)(C)C] | 36 |

Same assay, conditions: Leishmania infantum, S1 Data; read-out: L. infantum IC50

| SMILES | IC50 [µM] |
| --- | --- |
| CCCn1c(NC(=O)Cc2ccc(F)cc2)nc2c(F)cccc21 [Compound 5, Fc1cccc2c1nc(NC(=O)Cc3ccc(F)cc3)n2CCC] | > 64 |
| CCCn1c(NC(=O)Cc2ccc(F)cc2)nc2cc(F)c(F)cc21 [Compound 6, Fc1cc(n(CCC)c(NC(=O)Cc2ccc(F)cc2)n3)c3cc1F] | 2.19 |
| Cn1nccc1C(=O)Nc1nc2ccc(C#N)cc2n1CC(C)(C)O [Compound 49, O=C(c1ccnn1C)Nc2nc(ccc(C#N)c3)c3n2CC(O)(C)C] | 36 |
| CC(C)(C)Cn1c(NC(=O)c2ccn(CCO)n2)nc2ccc(C#N)cc21 [Compound 38, O=C(c1nn(CCO)cc1)Nc2nc(ccc(C#N)c3)c3n2CC(C)(C)C] | > 64 |

Tested on: PMM (Primary Mouse Macrophages)
Assay: Cytotoxicity on primary peritoneal mouse macrophages
Format: cell-based
Conditions: Mus musculus, Macrophage, read-out: PMM IC50
Method: as §1, §2

| SMILES | IC50 [µM] |
| --- | --- |
| CCCn1c(NC(=O)Cc2ccc(F)cc2)nc2c(F)cccc21 [Compound 5, Fc1cccc2c1nc(NC(=O)Cc3ccc(F)cc3)n2CCC] | > 64 |
| CCCn1c(NC(=O)Cc2ccc(F)cc2)nc2cc(F)c(F)cc21 [Compound 6, Fc1cc(n(CCC)c(NC(=O)Cc2ccc(F)cc2)n3)c3cc1F] | > 64 |
| Cn1nccc1C(=O)Nc1nc2ccc(C#N)cc2n1CC(C)(C)O [Compound 49, O=C(c1ccnn1C)Nc2nc(ccc(C#N)c3)c3n2CC(O)(C)C] | > 64 |
| CC(C)(C)Cn1c(NC(=O)c2ccn(CCO)n2)nc2ccc(C#N)cc21 [Compound 38, O=C(c1nn(CCO)cc1)Nc2nc(ccc(C#N)c3)c3n2CC(C)(C)C] | > 64 |

Tested on: not listed separately
Assay: MRC-5 cytotoxicity
Format: cell-based
Conditions: human, MRC-5 cells; S1 Data

| SMILES | CC50 [µM] |
| --- | --- |
| CCCn1c(NC(=O)Cc2ccc(F)cc2)nc2c(F)cccc21 [Compound 5, Fc1cccc2c1nc(NC(=O)Cc3ccc(F)cc3)n2CCC] | > 64 |
| CCCn1c(NC(=O)Cc2ccc(F)cc2)nc2cc(F)c(F)cc21 [Compound 6, Fc1cc(n(CCC)c(NC(=O)Cc2ccc(F)cc2)n3)c3cc1F] | > 64 |
| Cn1nccc1C(=O)Nc1nc2ccc(C#N)cc2n1CC(C)(C)O [Compound 49, O=C(c1ccnn1C)Nc2nc(ccc(C#N)c3)c3n2CC(O)(C)C] | > 64 |
| CC(C)(C)Cn1c(NC(=O)c2ccn(CCO)n2)nc2ccc(C#N)cc21 [Compound 38, O=C(c1nn(CCO)cc1)Nc2nc(ccc(C#N)c3)c3n2CC(C)(C)C] | > 64 |

Tested on: not listed separately
Assay: Experimental distribution coefficient (eLogD)
Format: physicochemical
Conditions: reverse stationary phase HPLC column (Ascentis RP-Amide), pH 7.4; S1 Data
Method: To determine the lipophilicity of the compounds, a methodology based on the retention time of molecules in reverse stationary phase (Ascentis RP-Amide HPLC column) was used. The chromatogram was obtained using LC-MS/MS. Test compounds were prepared at 1.0 μg/mL by adding the stock solution at (1:1) mobile phases A:B + internal standard at 200nM (A: 5% methanol in 10mM ammonium acetate pH 7.4, B: 100% methanol), DMSO concentration must be lower than 2%. […] The retention time (in minutes) of each of the eight standards was plotted against their LogD values. The resulting equation for the calibration curve (y = mx + b) was used to calculate the LogD values for the test compounds.

| SMILES | chromatographic logD |
| --- | --- |
| CCCn1c(NC(=O)Cc2ccc(F)cc2)nc2c(F)cccc21 [Compound 5, Fc1cccc2c1nc(NC(=O)Cc3ccc(F)cc3)n2CCC] | 3.57 |
| CCCn1c(NC(=O)Cc2ccc(F)cc2)nc2cc(F)c(F)cc21 [Compound 6, Fc1cc(n(CCC)c(NC(=O)Cc2ccc(F)cc2)n3)c3cc1F] | 4.04 |
| CC(C)(C)Cn1c(NC(=O)c2ccn(CCO)n2)nc2ccc(C#N)cc21 [Compound 38, O=C(c1nn(CCO)cc1)Nc2nc(ccc(C#N)c3)c3n2CC(C)(C)C] | 4.03 |

Same assay, conditions: reverse-phase HPLC retention (Ascentis RP-Amide column); experimental, pH 7.4

| SMILES | chromatographic logD |
| --- | --- |
| CCCn1c(NC(=O)Cc2ccc(F)cc2)nc2c(F)cccc21 [Compound 5, Fc1cccc2c1nc(NC(=O)Cc3ccc(F)cc3)n2CCC] | 3.6 |
| CC(C)(C)Cn1c(NC(=O)c2ccn(CCO)n2)nc2ccc(C#N)cc21 [Compound 38, O=C(c1nn(CCO)cc1)Nc2nc(ccc(C#N)c3)c3n2CC(C)(C)C] | 4 |

Tested on: not listed separately
Assay: Mouse liver microsomal stability
Format: in vitro ADME
Conditions: CD1, mouse, liver microsomes, pH 7.4, S1 Data; read-out: MLM CLint
Method: The metabolic stability of the compounds was evaluated in human (pool of 200 donors, XenoTech) and mouse liver microsomes (CD1 mouse, GIBCO). Test compounds were prepared at a concentration of 0.5 μM and incubated with 0.25 mg/mL liver microsomes at pH 7.4 and 37°C. The reaction was started by addition of NADPH at […]. Samples were taken at 0, 5, 10, 15, 20 and 30 minutes. The reaction was stopped by the addition of acetonitrile:methanol (1:1) containing an internal standard (tolbutamide at 50 nM). Compounds were quantified by liquid chromatography triple quadrupole mass spectrometry (LC-MS/MS). Peak area ratios (analyte/internal standard) were converted to % remaining using the area ratio at time 0 as 100%. Half-life (t1/2 = ln(2)/k) in minutes and intrinsic clearance (Clint = k x 1000/(0.25)) in μL/min/mg were calculated using a non-linear regression from % remaining versus incubation time. From this plot, the slope (k) was determined. The analysis conditions were: analytical column (Gemini C18, […], Phenomenex), electrospray ionization source (ESI) in positive and negative mode, mobile phase A (water + 0.1% formic acid) and B (acetonitrile + 0.1% formic acid), flow rate of 0.7 mL/min.

| SMILES | microsomal CLint at 0.5 μM [µL/min/mg] |
| --- | --- |
| Cn1nccc1C(=O)Nc1nc2ccc(C#N)cc2n1CC(C)(C)O [Compound 49, O=C(c1ccnn1C)Nc2nc(ccc(C#N)c3)c3n2CC(O)(C)C] | < 23 |
| CC(C)(C)Cn1c(NC(=O)c2ccn(CCO)n2)nc2ccc(C#N)cc21 [Compound 38, O=C(c1nn(CCO)cc1)Nc2nc(ccc(C#N)c3)c3n2CC(C)(C)C] | < 23 |

Same assay, conditions: S1 Data

| SMILES | MLM CLint [µL/min/mg] |
| --- | --- |
| CCCn1c(NC(=O)Cc2ccc(F)cc2)nc2c(F)cccc21 [Compound 5, Fc1cccc2c1nc(NC(=O)Cc3ccc(F)cc3)n2CCC] | 715 |

Same assay, conditions: mouse liver microsome intrinsic clearance

| SMILES | MLM CLint [µL/min/mg] |
| --- | --- |
| CCCn1c(NC(=O)Cc2ccc(F)cc2)nc2cc(F)c(F)cc21 [Compound 6, Fc1cc(n(CCC)c(NC(=O)Cc2ccc(F)cc2)n3)c3cc1F] | 399 |

Tested on: not listed separately
Assay: Parallel artificial membrane permeability assay (PAMPA)
Format: in vitro ADME
Conditions: PAMPA, S1 Data; read-out: PAMPA Pe
Method: To determine the passive permeability of the compounds, a 96-well plate containing membranes pre-coated with lipids (Corning Gentest # 353015) was used. The solutions of the compounds were prepared by diluting the stock solutions (10mM) in phosphate buffered saline (PBS) pH 6.5 at a final concentration of 10μM. The solutions diluted in PBS pH 6.5 were then added to the donor portion of the plate (300 μl/well), while PBS pH 7.4 (200 μl/well) was added to the acceptor portion. The two portions of the plate were then coupled, and the system was incubated for 5 h at 37°C. At the end of the incubation, samples were collected from the donor and acceptor plates, and then added to plates containing quench solution (10% water and 90% methanol: acetonitrile (50:50) + 50 nM tolbutamide). The final concentrations of compounds in the donor, acceptor, and initial solution (T0) wells were analyzed using LC-MS/MS. The results were used to calculate an effective permeability (Pe) value. The PAMPA assay was performed in triplicate (n = 3).

| SMILES | Papp at 5 h, 10 μM [×10⁻⁶ cm/s] |
| --- | --- |
| CCCn1c(NC(=O)Cc2ccc(F)cc2)nc2c(F)cccc21 [Compound 5, Fc1cccc2c1nc(NC(=O)Cc3ccc(F)cc3)n2CCC] | 16.2 |
| CCCn1c(NC(=O)Cc2ccc(F)cc2)nc2cc(F)c(F)cc21 [Compound 6, Fc1cc(n(CCC)c(NC(=O)Cc2ccc(F)cc2)n3)c3cc1F] | 13.6 |
| Cn1nccc1C(=O)Nc1nc2ccc(C#N)cc2n1CC(C)(C)O [Compound 49, O=C(c1ccnn1C)Nc2nc(ccc(C#N)c3)c3n2CC(O)(C)C] | 9.39 |
| CC(C)(C)Cn1c(NC(=O)c2ccn(CCO)n2)nc2ccc(C#N)cc21 [Compound 38, O=C(c1nn(CCO)cc1)Nc2nc(ccc(C#N)c3)c3n2CC(C)(C)C] | 7.54 |
